In publication PMC3913620, “Preclinical Evaluation of the Novel, Orally Bioavailable Selective Inhibitor of Nuclear Export (SINE) KPT-335 in Spontaneous Canine Cancer: Results of a Phase I Study” (PLoS ONE, 2014):

Columns and labels:
[1] = test system: OCI-Ly3 DLBCL cells; experiment: MTS cell viability assay, OCI-Ly3; format: cell-based, human; conditions: Homo sapiens, OCI-Ly3, 72 hours, read-out: IC50 (± S.D.), OCI-Ly3
Method: Cryopreserved tumor cells obtained from sterile lymph node biopsy samples from dogs with diffuse large B cell lymphoma (DLBCL) were cultured with 100 ng/mL of megaCD40L (Enzo Life Science, Plymouth Meeting, PA) as previously described, [27]. The human T-cell leukemia cell line, Jurkat, was from the American Type Culture Collection (ATCC, Manassas, VA) and cultured in RPMI1640 medium (Gibco/BRL, Grand Island, NY) containing 10% fetal bovine serum (FBS; Atlas Biologicals, Fort Collins, CO), 2-mercaptoethanol (Gibco/BRL), HEPES, L-glutamine, sodium pyruvate (Mediatech Inc., Manassas, VA), non-essential amino acids (Sigma Aldrich, St. Louis, MO), and Primocin (Invivogen, San Diego, CA). […]
Cell viability for lymphoid lines was determined by the MTS (3-(4, 5-dimethylthiazol-2-yl)-5-(3-carboxymethoxyphenyl)-2-(4-sulfophenyl)-2H-tetrazolium) assay using CellTiter 96® AQueous One Solution Cell Proliferation Assay Kit (Promega, Madison, WI). […] After 72 hours, 20 µL of MTS solution was added to each well and cells were incubated for another 4 hours before measuring absorbance at 490 nm using a Wallac Victor 1420 Multilabel Counter (Perkin Elmer, Waltham, MA). The IC50 of SINE was calculated using Prism 6 software (GraphPad Software, Inc., La Jolla, CA).

[2] = test system: primary canine DLBCL cells; experiment: MTS cell viability assay, primary canine DLBCL samples; format: cell-based; conditions: Canis lupus familiaris, primary sample #1, 72 hours, read-out: IC50, DLBCL#1
Method: Cryopreserved tumor cells obtained from sterile lymph node biopsy samples from dogs with diffuse large B cell lymphoma (DLBCL) were cultured with 100 ng/mL of megaCD40L (Enzo Life Science, Plymouth Meeting, PA) as previously described, [27]. The human T-cell leukemia cell line, Jurkat, was from the American Type Culture Collection (ATCC, Manassas, VA) and cultured in RPMI1640 medium (Gibco/BRL, Grand Island, NY) containing 10% fetal bovine serum (FBS; Atlas Biologicals, Fort Collins, CO), 2-mercaptoethanol (Gibco/BRL), HEPES, L-glutamine, sodium pyruvate (Mediatech Inc., Manassas, VA), non-essential amino acids (Sigma Aldrich, St. Louis, MO), and Primocin (Invivogen, San Diego, CA). The canine DLBCL cell line CLBL1 obtained from Dr. Barbara Rütgen (University of Vienna, Austria), [29] and human DLBCL cell lines OCI-Ly3 [30], [31] and OCI-Ly10 [32] obtained from Dr. Anne Novak (Mayo Clinic Cancer Center, Rochester, MN) were cultured in complete Iscove’s Modified Dulbecco’s medium (IMDM) containing 20% FBS, L-glutamine, and Primocin. All cells were maintained at 37°C in a humidified 5% CO2 atmosphere. The following additional canine tumor cell lines were used to evaluate response to SINE compounds: C2, mast cell tumor line provided by Dr. George Caughey, UCSF, San Francisco, CA [33]; OSA16, osteosarcoma cell line, provided by Dr. Jaime Modiano, UM, Minneapolis, MN [34]; and 323610-3, malignant melanoma cell line, provided by Dr. Michael Kent, UCD, Davis, CA [35]. All cell lines were cultured in complete RPMI media containing 10% FBS, antibiotic/antimycotic, HEPES, sodium pyruvate, nonessential amino acids and Glutamax (media supplements from Gibco).
Cell viability for lymphoid lines was determined by the MTS (3-(4, 5-dimethylthiazol-2-yl)-5-(3-carboxymethoxyphenyl)-2-(4-sulfophenyl)-2H-tetrazolium) assay using CellTiter 96® AQueous One Solution Cell Proliferation Assay Kit (Promega, Madison, WI). Briefly, for lymphoid cell lines, 5×10^4 cells (or 1×10^5 primary DLBCL cells) were cultured in 100 µL of complete medium in 96-well plates in the presence of SINE compounds. After 72 hours, 20 µL of MTS solution was added to each well and cells were incubated for another 4 hours before measuring absorbance at 490 nm using a Wallac Victor 1420 Multilabel Counter (Perkin Elmer, Waltham, MA). The IC50 of SINE was calculated using Prism 6 software (GraphPad Software, Inc., La Jolla, CA).

[3] = Single oral dose pharmacokinetics in healthy dogs; format: in vivo; conditions: male, beagle, dog, plasma, 1.5 mg/kg single oral dose, fed, 6 dogs
Method: KPT-335 was administered as a single oral dose in capsule formulation to 6 male beagle dogs at approximately 1.5 mg/kg following a meal. Serial blood samples were collected from each dog prior to dosing and at 0.25, 0.5, 1, 2, 4, 6, 8, 12, 18, 24 and 48 hours post-dose and placed into tubes containing K2EDTA. Blood samples were stored on wet ice until processed to plasma by centrifugation at 3500 rpm for 10 minutes at 5°C. Plasma samples were stored in at −80°C until analysis at Agilux Laboratories (Worcester, MA). Plasma samples were analyzed for parent drug concentration using sample preparation by protein precipitation and then analysis by LC-MS/MS using propranolol as the internal standard. The method was qualified for use (a single batch to assess method performance: precision and accuracy; linearity of dilution; and matrix specificity) prior to initiation of sample analysis. Acceptance criteria for calibration standards and quality control samples were within ±30% nominal concentration. Individual animal pharmacokinetic parameter values were derived by the pharmacokinetic analysis program Phoenix WinNonlin version 6.3 (Pharsight Corporation), using the non-compartmental Model 200 with uniform weighting. The single-dose pharmacokinetic parameters assessed include: Cmax (maximum concentration observed); Tmax (time of observed maximum concentration); AUC0→∞ (area under the concentration-time curve from time zero extrapolated to infinity); AUC0→last (area under the concentration-time curve from time zero to the time of the last quantifiable concentration); and t1/2 (terminal half life). Descriptive statistical data (mean, standard deviation, and standard error of the mean) were calculated from the unrounded numbers in an Excel (Microsoft) spreadsheet. Concentration results, means, and calculated parameters were reported to 3 significant figures.

**Q.** With O=C(/C=C\n1cnc(-c2cc(C(F)(F)F)cc(C(F)(F)F)c2)n1)NNc1ccccn1 [KPT-335] as the molecule, how does the IC50 [1] read?
**A.** 2.1 ± 1.3 nM

**Q.** What about the IC50 [2] of the same molecule?
**A.** 2 nM

**Q.** And the Cmax ([3]; po, 1.5 mg/kg, capsule)?
**A.** ~250 ng/mL

**Q.** What about the Tmax ([3]; po, 1.5 mg/kg, capsule) of the same molecule?
**A.** ~4 h

**Q.** And the AUC [3]?
**A.** 1800 ng·h/mL

**Q.** What about the AUC(0-inf) ([3]; capsule) of the same molecule?
**A.** 1810 ng·h/mL

**Q.** And the AUC(0-t) ([3]; capsule, read-out: AUC0-last, mean)?
**A.** 1760 ng·h/mL

**Q.** And the half-life ([3]; capsule, read-out: t1/2, mean (converted))?
**A.** 3.88 h
